This passage reports Ki and IC50 results from patent publication US11684616B2, “Azalactam compounds as HPK1 inhibitors” (PFIZER INC., priority 2020, dated 2023).

Each structure is given as a SMILES string.

The target in test [1] is human full-length autophosphorylated recombinant HPK1 (Homo sapiens (Human), UniProt Q92918). Briefly: HPK1 biochemical enzyme assay (chelation-enhanced fluorescence, CHEF). The note with it: 0.5 nM HPK1, 45 μM ATP, Morrison fit. The method, then:
HPK1 Biochemical Enzyme Assay
HPK1 enzyme inhibition was measured by using the fluorescence-based chelation-enhanced fluorescence (CHEF) method (1), and by using a proprietary fluorescent peptide substrate, in which a cysteine residue is alkylated with a sulfonamido-oxine-based derivative to afford an amino acid termed C-Sox (CSx). […] Initial reaction velocities were determined by following the peptide fluorescence (λex=360 nm, λem=500 nm) at 30° C. for 15 min in a Tecan M1000 plate reader (Tecan Group Ltd., Mannedorf, Zurich, Switzerland).
Production of Autophosphorylated Full-Length Recombinant HPK1
The DNA sequence encoding full-length human HPK1 (Genbank NM_001042600.2) was synthesized at GenScript and contained a limited number of silent base changes to eliminate certain restriction endonuclease enzyme recognition sites, and fused to a DNA sequence encoding a Tobacco Etch Virus (TEV)-cleavable N-terminal polyhistidine purification tag. A recombinant baculovirus was prepared by using the Bac-to-Bac method (InVitrogen) and was used to infect 9 L of Sf21 insect cells. All purification steps were carried out at 4° C. Cells containing recombinant HPK1 were lysed in 50 mM HEPES-NaOH, pH 7.5, 250 mM NaCl, 1 mM tris(2-carboxyethyl)phosphine (TCEP), 10 μM leupeptin (Sigma), 10 μM E-64 (Sigma), and one ‘EDTA-free’ protease inhibitor tablet (Roche) per 75 mL buffer, centrifuged at 15,000×g for 1 h and the supernatant passed over 5 mL of ProBond IMAC resin (InVitrogen). After washing, HPK1 was eluted with 12.5 mL of 50 mM HEPES-NaOH, pH 7.5, 400 mM NaCl, 250 mM imidazole-HCl pH 7.5, 1 mM TCEP, 2 μM leupeptin, and 2 μM E-64. The eluted HPK1 was dialyzed overnight against 0.8 L of 50 mM HEPES-NaOH, pH 7.5, 400 mM NaCl, 20 mM imidazole-HCl pH 7.5, 1 mM TCEP, 2 μM leupeptin, 2 μM E-64, 2 mM ATP-NaOH pH 7.3, 5 mM MgCl2 and 1 mg TEV (this step simultaneously allows for reduction of the imidazole concentration in preparation for the subsequent reverse IMAC chromatography step, removal of the polyhistidine purification tag by TEV protease, and autophosphorylation of HPK1 in the presence of MgATP). The de-tagged and autophosphorylated HPK1 was adjusted to 40 mM imidazole-HCl, pH 7.5, and passed through a 10 mL column of ProBond resin similarly equilibrated. […] The peak fractions containing HPK1 were pooled and concentrated to approximately 2.5 mL by using a centrifugal concentrator (Millipore). The concentrated HPK1 was adjusted to 20% (v/v) glycerol by the addition of 50% (v/v) glycerol, resulting in a final formulation of 25 mM HEPES-NaOH pH 7.5, 250 mM NaCl, 0.25 mM TCEP and 20% (v/v) glycerol. […] Aliquots of the enzyme were flash frozen in liquid nitrogen and stored at −80° C. The final product contains a glycine-serine extension at the N-terminus of the full-length protein, as a result of the cloning strategy.

Test [2] concerns Phospho-SLP-76 (Ser376) in Jurkat cells. Briefly: Phospho-SLP-76 (Ser376) HTRF assay in anti-CD3 stimulated Jurkat cells. Conditions: Homo sapiens, Jurkat, 30 min pre-treatment, anti-CD3 stimulation 15 min, read-out: pSLP76 IC50. The class given is cell-based. The protocol:
Cell Based Assays Phospho-SLP-76 (Ser376) Homogeneous Time Resolved Fluorescence (HTRF) Assay
Jurkat cells were seeded at 90,000 cells/well in 90 uL of RPMI1640 growth medium containing 10% FBS and incubated at 37° C. with 5% CO2 overnight. The following day, compounds were serially diluted from a 10 mM top dose for an 11-point 3-fold dilution curve in DMSO. Compounds were intermediately diluted 1:100 into growth media prior to diluting 1:10 on cells for final concentration 10 μM to 0.1 nM in 0.1% DMSO. After 30 min pre-treatment with compounds, the cells were stimulated using 200 μg/mL of F(ab)2 complexed anti-CD3 (clone UCTH1) for 15 min at 37° C. with 5% CO2. Stimulation was stopped with ice cold PBS and cells were harvested by centrifugation before lysis in Cisbio lysis buffer (Cisbio, Bedford, Mass.). Lysates were transferred to white, low-volume plates containing anti-phospho-SLP-76-Cryptate plus anti-phospho-SLP-76-d2 HTRF antibodies and incubated overnight at room temperature protected from light according to the manufacturer's protocol (Cisbio, Bedford, Mass.). HTRF was measured on a Perkin Elmer Envision and IC50 values were calculated by concentration-response curve fitting utilizing four-parameter nonlinear regression analyses.
In general terms: Time-resolved FRET reads energy transfer from a long-lived donor to a nearby acceptor.

The Ki is the equilibrium dissociation constant of an inhibitor or competing ligand from its target. In general, IC50 refers to the concentration that gives 50% inhibition.

Sequence of human full-length autophosphorylated recombinant HPK1 (Q92918 other isoform, or with tags, fused parts or gaps): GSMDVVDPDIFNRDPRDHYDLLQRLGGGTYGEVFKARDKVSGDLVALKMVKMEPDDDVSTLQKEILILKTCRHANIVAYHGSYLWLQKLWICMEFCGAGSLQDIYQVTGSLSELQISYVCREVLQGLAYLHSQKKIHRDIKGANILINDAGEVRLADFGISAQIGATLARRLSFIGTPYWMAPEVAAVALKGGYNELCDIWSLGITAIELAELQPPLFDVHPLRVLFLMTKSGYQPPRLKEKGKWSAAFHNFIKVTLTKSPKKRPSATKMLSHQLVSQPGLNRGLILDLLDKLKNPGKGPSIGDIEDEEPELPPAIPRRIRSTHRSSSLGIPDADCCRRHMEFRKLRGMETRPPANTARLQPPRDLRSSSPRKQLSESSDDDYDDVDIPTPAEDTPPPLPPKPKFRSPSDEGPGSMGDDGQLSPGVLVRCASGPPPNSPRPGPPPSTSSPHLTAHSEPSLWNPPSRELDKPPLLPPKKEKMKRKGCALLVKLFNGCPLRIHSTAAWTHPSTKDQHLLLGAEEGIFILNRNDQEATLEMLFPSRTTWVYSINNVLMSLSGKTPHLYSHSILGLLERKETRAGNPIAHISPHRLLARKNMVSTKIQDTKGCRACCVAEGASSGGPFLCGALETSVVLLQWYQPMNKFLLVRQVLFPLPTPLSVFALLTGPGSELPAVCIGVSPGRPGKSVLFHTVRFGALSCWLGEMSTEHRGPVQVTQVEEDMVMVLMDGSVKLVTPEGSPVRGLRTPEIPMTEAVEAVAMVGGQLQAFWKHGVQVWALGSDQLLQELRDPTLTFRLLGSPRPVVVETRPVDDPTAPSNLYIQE

Regarding `CC[C@@H](N)c1nc(C2(C)CC2)cc2c1CN(c1cccc(-c3nnc4n3[C@@H](CO)CC4)n1)C2=O` (single isomer, unassigned) [Example 36], in test [1], the Ki amounted to 0.074 nM. In addition, in test [2], the 50% inhibitory concentration (IC50) came to 110 nM.
As to `CC[C@@H](N)c1nc(C2(C)CC2)cc2c1CN(c1cccc(-c3nnc4n3[C@@H](C)CC4)n1)C2=O` (single isomer, unassigned) [Example 37], in test [1], the Ki was less than 0.05 nM. The concentration for half-maximal inhibition (IC50) in test [2] came out at 49 nM.
Taken in the same sequence, the figures for `COC[C@@H](N)c1nc(C2(C)CC2)cc2c1CN(c1cccc(-c3nnc4n3[C@@H](CO)CC4)n1)C2=O` (single isomer, unassigned) [Example 38] were 0.18 nM and 197 nM.
For `CCCn1cnnc1-c1cccc(N2Cc3c(cc(N4CCC[C@H]4C)nc3[C@@H](C)N)C2=O)n1` (single isomer, unassigned) [Example 101], the Ki in test [1] worked out at 0.17 nM. Besides, the IC50 in test [2] amounted to 118 nM.
For `CCCn1cnnc1-c1cccc(N2Cc3c(cc(N4CCC[C@H]4C)nc3[C@H](C)N)C2=O)n1` (single isomer, unassigned) [Example 102] the same measures were 0.11 nM and 107 nM.
For `CCn1c(C)nnc1-c1cccc(N2Cc3c(cc(N4CCC[C@H]4C)nc3[C@@H](C)NC)C2=O)n1` (single isomer, unassigned) [Example 107] the same measures were 1.02 nM and 140 nM.
Taken in the same sequence, the figures for `CCn1c(C)nnc1-c1cccc(N2Cc3c(cc(N4CCC[C@H]4C)nc3[C@H](C)NC)C2=O)n1` (single isomer, unassigned) [Example 108] were 0.61 nM and 84 nM.
`CCn1cnnc1-c1cccc(N2Cc3c(cc(N4CCC[C@H]4C)nc3[C@H](C)NC)C2=O)n1` (single isomer, unassigned) [Example 109]: the Ki in test [1] worked out at 0.31 nM. Besides, the IC50 in test [2] was 61 nM.
For `CCn1cnnc1-c1cccc(N2Cc3c(cc(N4CCC[C@H]4C)nc3[C@@H](C)NC)C2=O)n1` (single isomer, unassigned) [Example 110] the same measures were 0.09 nM and 42 nM.
Taken in the same sequence, the figures for `CCCn1cnnc1-c1cccc(N2Cc3c(cc(C4(C)CC4)nc3[C@@H](C)N)C2=O)n1` (single isomer, unassigned) [Example 117, 4-[(1ξ)-1-aminoethyl]-6-(1-methyl-cyclopropyl)-2-[6-(4-propyl-4H-1,2,4-triazol-3-yl)pyridin-2-yl]-2,3-dihydro-1H-pyrrolo[3,4-c]pyridin-1-one] were 1.02 nM and 270 nM.
For `CCCn1cnnc1-c1cccc(N2Cc3c(cc(C4(C)CC4)nc3[C@H](C)N)C2=O)n1` (single isomer, unassigned) [Example 118, 4-[(1ξ)-1-aminoethyl]-6-(1-methyl-cyclopropyl)-2-[6-(4-propyl-4H-1,2,4-triazol-3-yl)pyridin-2-yl]-2,3-dihydro-1H-pyrrolo[3,4-c]pyridin-1-one] the same measures were 1.5 nM and 324 nM.
`CC[C@@H](N)c1nc(C2(C)CC2)cc2c1CN(c1cccc(-c3nncn3CC)n1)C2=O` (single isomer, unassigned) [Example 119, 4-[(1ξ)-1-aminopropyl]-2-[6-(4-ethyl-4H-1,2,4-triazol-3-yl)pyridin-2-yl]-6-(1-methylcyclo-propyl)-2,3-dihydro-1H-pyrrolo[3,4-c]pyridin-1-one]: the Ki in test [1] came out at 0.9 nM. The IC50 in test [2] came to 165 nM.
For `CC[C@H](N)c1nc(C2(C)CC2)cc2c1CN(c1cccc(-c3nncn3CC)n1)C2=O` (single isomer, unassigned) [Example 120, 4-[(1ξ)-1-aminopropyl]-2-[6-(4-ethyl-4H-1,2,4-triazol-3-yl)pyridin-2-yl]-6-(1-methylcyclo-propyl)-2,3-dihydro-1H-pyrrolo[3,4-c]pyridin-1-one] the same measures were 2.97 nM and 531 nM.
Take `CCCn1cnnc1-c1cccc(N2Cc3c(cc(C4(C)CC4)nc3[C@H](N)CC)C2=O)n1` (single isomer, unassigned) [Example 121, 4-[(1ξ)-1-aminopropyl]-6-(1-methylcyclo-propyl)-2-[6-(4-propyl-4H-1,2,4-triazol-3-yl)pyridin-2-yl]-2,3-dihydro-1H-pyrrolo[3,4-c]pyridin-1-one]: the Ki in test [1] worked out at 4.12 nM. Further, the IC50 in test [2] was determined as 553 nM.
Taken in the same sequence, the figures for `CCCn1cnnc1-c1cccc(N2Cc3c(cc(C4(C)CC4)nc3[C@@H](N)CC)C2=O)n1` (single isomer, unassigned) [Example 122, 4-[(1ξ)-1-aminopropyl]-6-(1-methylcyclo-propyl)-2-[6-(4-propyl-4H-1,2,4-triazol-3-yl)pyridin-2-yl]-2,3-dihydro-1H-pyrrolo[3,4-c]pyridin-1-one] were 0.78 nM and 354 nM.
With `CCN(C)c1cc2c(c([C@H](C)N)n1)CN(c1cccc(-c3nnc(C)n3CC)n1)C2=O` (single isomer, unassigned) [Example 128, 4-[(1ξ)-1-aminoethyl]-6-[ethyl(methyl)amino]-2-[6-(4-ethyl-5-methyl-4H-1,2,4-triazol-3-yl)pyridin-2-yl]-2,3-dihydro-1H-pyrrolo[3,4-c]pyridin-1-one], the Ki in test [1] stood at 1.03 nM. For the same molecule, in test [2], the IC50 amounted to 194 nM.
Turning to `CCN(C)c1cc2c(c([C@@H](C)N)n1)CN(c1cccc(-c3nncn3CC)n1)C2=O` (single isomer, unassigned) [Example 129, 4-[(1ξ)-1-aminoethyl]-6-[ethyl(methyl)amino]-2-[6-(4-ethyl-4H-1,2,4-triazol-3-yl)pyridin-2-yl]-2,3-dihydro-1H-pyrrolo[3,4-c]pyridin-1-one], the Ki in test [1] came out at 0.28 nM. Further, the IC50 in test [2] was 97 nM.
Taken in the same sequence, the figures for `CCN(C)c1cc2c(c([C@H](C)N)n1)CN(c1cccc(-c3nncn3CC)n1)C2=O` (single isomer, unassigned) [Example 130, 4-[(1ξ)-1-aminoethyl]-6-[ethyl(methyl)amino]-2-[6-(4-ethyl-4H-1,2,4-triazol-3-yl)pyridin-2-yl]-2,3-dihydro-1H-pyrrolo[3,4-c]pyridin-1-one] were 0.4 nM and 77 nM.
Taken in the same sequence, the figures for `CCCn1c(C)nnc1-c1cccc(N2Cc3c(cc(N4CCC[C@H]4C)nc3[C@@H](C)N)C2=O)n1` (single isomer, unassigned) [Example 135] were 0.37 nM and 143 nM.
Taken in the same sequence, the figures for `CCCn1c(C)nnc1-c1cccc(N2Cc3c(cc(N4CCC[C@H]4C)nc3[C@H](C)N)C2=O)n1` (single isomer, unassigned) [Example 136] were 0.22 nM and 90 nM.
For the molecule `CCCn1c(C)nnc1-c1cccc(N2Cc3c(cc(N(C)C(C)C)nc3[C@@H](C)N)C2=O)n1` (single isomer, unassigned) [Example 148, 4-[(1ξ)-1-aminoethyl]-6-[methyl (propan-2-yl)amino]-2-[6-(5-methyl-4-propyl-4H-1,2,4-triazol-3-yl)pyridin-2-yl]-2,3-dihydro-1H-pyrrolo[3,4-c]pyridin-1-one], the Ki in test [1] came to 0.4 nM. Besides, the IC50 in test [2] amounted to 96 nM.
